In PubChem BioAssay AID1745844 (Carcinogenic Potency Database (CPDB), 2022):
Calls of active or inactive are those of the source. How the calls were made is not given here.

System: rodent lifetime carcinogenesis bioassay, tumor incidence TD50
Experiment: chronic cancer bioassays in animals – CPDB, compiled studies (AID 1745844)
[1] = hamster, strain Syrian, MB strain, males, in feed, site: liver, lesion: several types, types named in the paper, dosed 60 weeks, study length 60 weeks
[2] = rat, strain Sprague-Dawley, males, in feed, site: liver, lesion: several types, types named in the paper, dosed 60 weeks, study length 60 weeks

With `Cc1cccc(Nc2cc(Cl)nc(SCC(=O)O)n2)c1C` the carcinogen call [1] was “negative (inactive)”, the carcinogen call (mouse, strain CSb, males, in feed, site: liver, lesion: hepatocellular carcinoma, dosed 53 weeks, study length 63 weeks) was “positive” and the TD50 (rat, strain F344/DuCrj, males, in feed, site: liver, lesion: several types, types named in the paper, dosed 52 weeks, study length 52 weeks) was 4.26 mg/kg/day. For the same molecule, the carcinogen call (rat, strain F344/DuCrj, males, in feed, site: liver, lesion: several types, types named in the paper, dosed 78 weeks, study length 78 weeks) was “positive”, the TD50 (rat, strain Fischer 344, males, in feed, site: liver, lesion: hepatocellular adenoma, dosed 37 weeks, study length 52 weeks) was 95.1 mg/kg/day and the TD50 (rat, strain Fischer 344, males, in feed, site: liver, lesion: hepatocellular adenoma, dosed 37 weeks, study length 104 weeks) was 190 mg/kg/day. For the same molecule, the TD50 (rat, strain Fischer 344, males, in feed, site: liver, lesion: hepatocellular adenoma, dosed 52 weeks, study length 52 weeks) was 2.29 mg/kg/day, the TD50 (rat, strain Fischer 344, males, in feed, site: liver, lesion: hepatocellular adenoma, dosed 52 weeks, study length 104 weeks) was 84.3 mg/kg/day and the carcinogen call (rat, strain Fischer 344, males, in feed, site: liver, lesion: hepatocellular carcinoma, trabecular, dosed 69 weeks, study length 69 weeks) was “positive”. For the same molecule, the TD50 (rat, strain Fischer 344, males, in feed, site: liver, lesion: hepatocellular carcinoma, dosed 37 weeks, study length 104 weeks) was 92.6 mg/kg/day, the TD50 (rat, strain Fischer 344, males, in feed, site: liver, lesion: hepatocellular carcinoma, dosed 52 weeks, study length 52 weeks) was 19.2 mg/kg/day and the TD50 (rat, strain Fischer 344, males, in feed, site: liver, lesion: hepatocellular carcinoma, dosed 52 weeks, study length 104 weeks) was 26.8 mg/kg/day. For the same molecule, the carcinogen call (rat, strain Fischer 344, males, in feed, site: liver, lesion: hepatocellular carcinoma, dosed 65 weeks, study length 65 weeks) was “positive”, the TD50 (rat, strain Fischer 344, males, in feed, site: liver, lesion: several types, types named in the paper, dosed 37 weeks, study length 104 weeks) was 60 mg/kg/day and the carcinogen call (rat, strain Fischer 344, males, in feed, site: liver, lesion: several types, types named in the paper, dosed 52 weeks, study length 52 weeks) was “positive”. For the same molecule, the TD50 (rat, strain Fischer 344, males, in feed, site: liver, lesion: several types, types named in the paper, dosed 52 weeks, study length 104 weeks) was 22.9 mg/kg/day and the carcinogen call [2] was “positive”.
`BrC(Br)Br` was tested, and the TD50 (mouse, strain B6C3F1, females, by gavage, site: liver + spleen, lesion: hemangiosarcoma, dosed 103 weeks, study length 106 weeks) was 1110 mg/kg/day (inactive), the TD50 (mouse, strain B6C3F1, females, by gavage, site: liver, lesion: hepatocellular adenoma + hepatocellular carcinoma + neoplastic nodule, dosed 103 weeks, study length 106 weeks) was 570 mg/kg/day and the TD50 (mouse, strain B6C3F1, males, by gavage, site: any site (literature study), lesion: several types, types named in the paper, dosed 103 weeks, study length 106 weeks) was 41 mg/kg/day. The TD50 (mouse, strain B6C3F1, males, by gavage, site: liver, lesion: hepatocellular adenoma + hepatocellular carcinoma + neoplastic nodule, dosed 103 weeks, study length 106 weeks) was 53.6 mg/kg/day, the TD50 (mouse, strain B6C3F1, males, by gavage, site: lung, lesion: alveolar/bronchiolar adenoma + alveolar/bronchiolar carcinoma, dosed 103 weeks, study length 106 weeks) was 2450 mg/kg/day and the TD50 (mouse, strain B6C3F1, males, by gavage, site: subcutaneous tissue, lesion: fibrosarcoma + sarcoma, dosed 103 weeks, study length 106 weeks) was 81.9 mg/kg/day (inactive). It also gave a TD50 (rat, strain Fischer 344, females, by gavage, site: large intestine, lesion: adenocarcinoma + polypoid adenoma, dosed 103 weeks, study length 106 weeks) of 469 mg/kg/day, a TD50 (rat, strain Fischer 344, females, by gavage, site: large intestine, lesion: polypoid adenoma, dosed 103 weeks, study length 106 weeks) of 632 mg/kg/day and a TD50 (rat, strain Fischer 344, females, by gavage, site: liver, lesion: hepatocellular adenoma + hepatocellular carcinoma + neoplastic nodule, dosed 103 weeks, study length 106 weeks) of 676 mg/kg/day. For the same molecule, the TD50 (rat, strain Fischer 344, males, by gavage, site: any site (literature study), lesion: several types, types named in the paper, dosed 103 weeks, study length 105 weeks) was 513 mg/kg/day, the TD50 (rat, strain Fischer 344, males, by gavage, site: large intestine, lesion: adenocarcinoma + polypoid adenoma, dosed 103 weeks, study length 105 weeks) was 1050 mg/kg/day and the TD50 (rat, strain Fischer 344, males, by gavage, site: testis, lesion: interstitial-cell adenoma, bilateral + interstitial-cell adenoma, dosed 103 weeks, study length 105 weeks) was 75 mg/kg/day. The TD50 (rat, strain Fischer 344, males, by gavage, site: thyroid gland, lesion: follicular-cell carcinoma, dosed 103 weeks, study length 105 weeks) was 656 mg/kg/day.
`CS(=O)(=O)OCCCCOS(C)(=O)=O` gave a TD50 (rat, strain BR 46, males, by gavage, site: any site (literature study), lesion: benign tumor, dosed 52 weeks, study length 104 weeks) of 0.642 mg/kg/day, a TD50 (rat, strain BR 46, males, by gavage, site: any site (literature study), lesion: malignant tumor, dosed 52 weeks, study length 104 weeks) of 0.117 mg/kg/day and a TD50 (rat, strain BR 46, males, by gavage, site: any site (literature study), lesion: several types, types named in the paper, dosed 52 weeks, study length 104 weeks) of 0.0931 mg/kg/day.
With `NCCS(=O)(=O)O` the carcinogen call (rat, strain Wistar, females, in feed, site: mammary gland, lesion: fibroadenoma, dosed 78 weeks, study length 78 weeks) was “negative (inactive)” and the carcinogen call (rat, strain Wistar, males, in feed, site: mammary gland, lesion: fibroadenoma, dosed 78 weeks, study length 78 weeks) was “negative (inactive)”.
In the case of `CC(C)(Oc1ccc(C2CCCc3ccccc32)cc1)C(=O)O` (stereo not drawn), the carcinogen call [1] is reported as “negative (inactive)”, the TD50 (rat, strain Fischer 344, males, in feed, site: liver, lesion: hepatocellular carcinoma, dosed 108 weeks, study length 108 weeks) is reported as 22.4 mg/kg/day and the TD50 (rat, strain Fischer 344, males, in feed, site: pancreas, lesion: acinar-cell adenoma, dosed 108 weeks, study length 108 weeks) is reported as 207 mg/kg/day. The TD50 (rat, strain Fischer 344, males, in feed, site: pancreas, lesion: acinar-cell carcinoma, dosed 108 weeks, study length 108 weeks) was 428 mg/kg/day, the TD50 (rat, strain Fischer 344, males, in feed, site: pancreas, lesion: several types, types named in the paper, dosed 108 weeks, study length 108 weeks) was 132 mg/kg/day and the TD50 [2] was 3.51 mg/kg/day. It also gave a TD50 (rat, strain Wistar, females, in feed, site: liver, lesion: hepatocellular adenoma, dosed 70 weeks, study length 70 weeks) of 55.5 mg/kg/day, a TD50 (rat, strain Wistar, females, in feed, site: liver, lesion: hepatocellular carcinoma, dosed 55 weeks, study length 55 weeks) of 163 mg/kg/day and a TD50 (rat, strain Wistar, females, in feed, site: liver, lesion: hepatocellular carcinoma, dosed 70 weeks, study length 70 weeks) of 92.3 mg/kg/day. For the same molecule, the TD50 (rat, strain Wistar, females, in feed, site: liver, lesion: several types, types named in the paper, dosed 55 weeks, study length 55 weeks) was 163 mg/kg/day, the TD50 (rat, strain Wistar, females, in feed, site: liver, lesion: several types, types named in the paper, dosed 70 weeks, study length 70 weeks) was 36.6 mg/kg/day and the TD50 (rat, strain Wistar, males, in feed, site: any site (literature study), lesion: one or several types, types not named, dosed 59 weeks, study length 59 weeks) was 12.3 mg/kg/day. For the same molecule, the TD50 (rat, strain Wistar, males, in feed, site: liver, lesion: hepatocellular adenoma, dosed 57 weeks, study length 57 weeks) was 38.8 mg/kg/day, the TD50 (rat, strain Wistar, males, in feed, site: liver, lesion: hepatocellular adenoma, dosed 59 weeks, study length 59 weeks) was 48 mg/kg/day and the TD50 (rat, strain Wistar, males, in feed, site: liver, lesion: hepatocellular carcinoma, dosed 57 weeks, study length 57 weeks) was 59.1 mg/kg/day. For the same molecule, the TD50 (rat, strain Wistar, males, in feed, site: liver, lesion: hepatocellular carcinoma, dosed 59 weeks, study length 59 weeks) was 58.1 mg/kg/day, the TD50 (rat, strain Wistar, males, in feed, site: liver, lesion: several types, types named in the paper, dosed 57 weeks, study length 57 weeks) was 19.8 mg/kg/day and the TD50 (rat, strain Wistar, males, in feed, site: liver, lesion: several types, types named in the paper, dosed 59 weeks, study length 59 weeks) was 22.1 mg/kg/day.
